Assay results published in ChEMBL document CHEMBL1201862, “PubChem BioAssay data set” (2004).
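Briefly, cells in 96-well plates were exposed to five compound concentrations for 48 h, and endpoints were estimated by linear interpolation. GI50: concentration for 50% inhibition of growth.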 Calls of active or inactive are those of the source. Rule as the data show it: active = GI50 up to about 1.1 µM and inactive = higher.

How the values were obtained:
Experiment in all cases: inhibition of tumour cell growth, NCI panel, 48 h
OVCAR-4 = test system: OVCAR-4
M19-MEL = test system: M19-MEL
SR = test system: SR
SF-539 = test system: SF-539
CAKI-1 = test system: CAKI-1
COLO 205 = test system: COLO 205
LXFL 529 = test system: LXFL 529
ACHN = test system: ACHN
LOX IMVI = test system: LOX IMVI
XF498 = test system: XF498
MOLT-4 = test system: MOLT-4
SNB-19 = test system: SNB-19
UO-31 = test system: UO-31
NCI-H226 = test system: NCI-H226
A549 = test system: A549
SNB-78 = test system: SNB-78
SF-268 = test system: SF-268
NCI-H460 = test system: NCI-H460
SK-OV-3 = test system: SK-OV-3
SK-MEL-28 = test system: SK-MEL-28
UACC-62 = test system: UACC-62
RPMI-8226 = test system: RPMI-8226
SF-295 = test system: SF-295
HCT-15 = test system: HCT-15
EKVX = test system: EKVX
786-0 = test system: 786-0
K562 = test system: K562
OVCAR-8 = test system: OVCAR-8
SNB-75 = test system: SNB-75
DMS-114 = test system: DMS-114
HT-29 = test system: HT-29
SK-MEL-5 = test system: SK-MEL-5
CCRF-CEM = test system: CCRF-CEM
RXF 393 = test system: RXF 393
HL-60 = test system: HL-60
SN12C = test system: SN12C
NCI-H23 = test system: NCI-H23
IGROV-1 = test system: IGROV-1
SK-MEL-2 = test system: SK-MEL-2
DLD-1 = test system: DLD-1
OVCAR-3 = test system: OVCAR-3
KM12 = test system: KM12
NCI-H522 = test system: NCI-H522
HCT-116 = test system: HCT-116
U-251 = test system: U-251
KM-20L2 = test system: KM-20L2
DMS-273 = test system: DMS-273
HOP-92 = test system: HOP-92
HOP-18 = test system: HOP-18
UACC-257 = test system: UACC-257
M14 = test system: M14
SW-620 = test system: SW-620
HOP-62 = test system: HOP-62
OVCAR-5 = test system: OVCAR-5
TK-10 = test system: TK-10
Malme-3M = test system: Malme-3M

CC1=CC2CCC1(C)C/C2=C(/C)OC=O (stereo not given)
GI50 (OVCAR-4): > 100 µM (inactive)
GI50 (M19-MEL): > 100 µM (inactive)
GI50 (SR): > 100 µM (inactive)
GI50 (SF-539): > 100 µM (inactive)
GI50 (CAKI-1): > 100 µM (inactive)
GI50 (COLO 205): > 100 µM (inactive)
GI50 (LXFL 529): > 100 µM (inactive)
GI50 (ACHN): > 100 µM (inactive)
GI50 (LOX IMVI): > 100 µM (inactive)
GI50 (XF498): > 100 µM (inactive)
GI50 (MOLT-4): > 100 µM (inactive)
GI50 (SNB-19): > 100 µM (inactive)
GI50 (UO-31): > 100 µM (inactive)
GI50 (NCI-H226): > 100 µM (inactive)
GI50 (A549): > 100 µM (inactive)
GI50 (SNB-78): > 100 µM (inactive)
GI50 (SF-268): > 100 µM (inactive)
GI50 (NCI-H460): > 100 µM (inactive)
GI50 (SK-OV-3): > 100 µM (inactive)
GI50 (SK-MEL-28): > 100 µM (inactive)
GI50 (UACC-62): > 100 µM (inactive)
GI50 (RPMI-8226): > 100 µM (inactive)
GI50 (SF-295): > 100 µM (inactive)
GI50 (HCT-15): > 100 µM
GI50 (EKVX): > 100 µM (inactive)
GI50 (786-0): > 100 µM (inactive)
GI50 (K562): > 100 µM (inactive)
GI50 (OVCAR-8): > 100 µM (inactive)
GI50 (SNB-75): > 100 µM (inactive)
GI50 (DMS-114): > 100 µM (inactive)
GI50 (HT-29): > 100 µM (inactive)
GI50 (SK-MEL-5): > 100 µM (inactive)
GI50 (CCRF-CEM): > 100 µM (inactive)
GI50 (RXF 393): > 100 µM (inactive)
GI50 (HL-60): > 100 µM (inactive)
GI50 (SN12C): > 100 µM (inactive)
GI50 (NCI-H23): > 100 µM (inactive)
GI50 (IGROV-1): > 100 µM (inactive)
GI50 (SK-MEL-2): > 100 µM (inactive)
GI50 (DLD-1): > 100 µM (inactive)
GI50 (OVCAR-3): > 100 µM (inactive)
GI50 (KM12): > 100 µM (inactive)
GI50 (NCI-H522): > 100 µM (inactive)
GI50 (HCT-116): > 100 µM (inactive)
GI50 (U-251): > 100 µM (inactive)
GI50 (KM-20L2): > 100 µM (inactive)
GI50 (DMS-273): > 100 µM (inactive)
GI50 (HOP-92): > 100 µM (inactive)
GI50 (HOP-18): > 100 µM (inactive)
GI50 (UACC-257): > 100 µM (inactive)
GI50 (M14): > 100 µM (inactive)
GI50 (SW-620): > 100 µM (inactive)
GI50 (HOP-62): > 100 µM (inactive)
GI50 (OVCAR-5): > 100 µM (inactive)
GI50 (TK-10): > 100 µM (inactive)

Cc1cc2c(=O)cc(-c3ccc(Cl)cc3Cl)oc2c(C(=O)O)c1C
GI50 (OVCAR-4): > 100 µM (inactive)
GI50 (SF-539): > 100 µM (inactive)
GI50 (CAKI-1): > 100 µM (inactive)
GI50 (Malme-3M): > 100 µM (inactive)
GI50 (COLO 205): > 100 µM (inactive)
GI50 (LXFL 529): > 100 µM (inactive)
GI50 (ACHN): > 100 µM (inactive)
GI50 (LOX IMVI): > 100 µM (inactive)
GI50 (XF498): > 100 µM (inactive)
GI50 (MOLT-4): > 100 µM (inactive)
GI50 (SNB-19): > 100 µM (inactive)
GI50 (UO-31): > 100 µM (inactive)
GI50 (NCI-H226): > 100 µM (inactive)
GI50 (A549): > 100 µM (inactive)
GI50 (SNB-78): > 100 µM (inactive)
GI50 (SF-268): > 100 µM (inactive)
GI50 (NCI-H460): > 100 µM (inactive)
GI50 (SK-OV-3): > 100 µM (inactive)
GI50 (SK-MEL-28): > 100 µM (inactive)
GI50 (UACC-62): > 100 µM (inactive)
GI50 (RPMI-8226): > 100 µM (inactive)
GI50 (SF-295): > 100 µM (inactive)
GI50 (HCT-15): > 100 µM
GI50 (EKVX): > 100 µM (inactive)
GI50 (786-0): > 100 µM (inactive)
GI50 (K562): > 100 µM (inactive)
GI50 (OVCAR-8): > 100 µM (inactive)
GI50 (SNB-75): > 100 µM (inactive)
GI50 (DMS-114): > 100 µM (inactive)
GI50 (HT-29): > 100 µM (inactive)
GI50 (SK-MEL-5): > 100 µM (inactive)
GI50 (CCRF-CEM): > 100 µM (inactive)
GI50 (RXF 393): > 100 µM (inactive)
GI50 (SN12C): > 100 µM (inactive)
GI50 (NCI-H23): > 100 µM (inactive)
GI50 (IGROV-1): > 100 µM (inactive)
GI50 (SK-MEL-2): > 100 µM (inactive)
GI50 (DLD-1): > 100 µM (inactive)
GI50 (OVCAR-3): > 100 µM (inactive)
GI50 (KM12): > 100 µM (inactive)
GI50 (NCI-H522): 25.3 µM (inactive)
GI50 (HCT-116): > 100 µM (inactive)
GI50 (U-251): > 100 µM (inactive)
GI50 (KM-20L2): > 100 µM (inactive)
GI50 (HOP-18): > 100 µM (inactive)
GI50 (UACC-257): > 100 µM (inactive)
GI50 (M14): > 100 µM (inactive)
GI50 (SW-620): > 100 µM (inactive)
GI50 (OVCAR-5): > 100 µM (inactive)
GI50 (TK-10): > 100 µM (inactive)
